Laboratory results: ChEMBL document CHEMBL1770083, “2-(4-Carbonylphenyl)benzoxazole inhibitors of CETP: attenuation of hERG binding and improved HDLc-raising efficacy” (Bioorg Med Chem Lett, 2011)

Key:
[1] = molecular target: Voltage-gated inwardly rectifying potassium channel KCNH2 (Homo sapiens, UniProt Q12809); test: Displacement of [35S]MK499 from human ERG expressed in HEK cells; type: cell-based, HEK293
[2] = molecular target: T1, Cholesteryl ester transfer protein (Homo sapiens, UniProt P11597); test: Inhibition of CETP
T1 sequence (P11597 whole entry): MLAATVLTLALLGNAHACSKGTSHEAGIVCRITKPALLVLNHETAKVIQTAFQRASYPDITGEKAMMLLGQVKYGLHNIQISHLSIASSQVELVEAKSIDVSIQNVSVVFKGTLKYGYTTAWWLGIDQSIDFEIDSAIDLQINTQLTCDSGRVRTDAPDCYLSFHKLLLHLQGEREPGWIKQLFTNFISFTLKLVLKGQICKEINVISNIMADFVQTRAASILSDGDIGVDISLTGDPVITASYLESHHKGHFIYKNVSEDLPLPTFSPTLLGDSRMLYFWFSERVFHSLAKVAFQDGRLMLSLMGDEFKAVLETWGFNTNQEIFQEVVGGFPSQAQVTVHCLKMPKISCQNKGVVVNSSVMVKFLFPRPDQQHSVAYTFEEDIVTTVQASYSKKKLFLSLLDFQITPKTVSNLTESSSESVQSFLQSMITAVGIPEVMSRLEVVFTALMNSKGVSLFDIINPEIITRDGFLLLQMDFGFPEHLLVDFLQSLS

[3] = Lipophilicity, log D of the compound at pH 7.3 by HPLC; type: physicochemical; conditions: buffer
[4] = test system: Mus musculus; test: Increase of HDL cholesterol level in transgenic mouse model at 10 mg/kg; type: functional

Sequence of Voltage-gated inwardly rectifying potassium channel KCNH2 (Q12809 whole entry): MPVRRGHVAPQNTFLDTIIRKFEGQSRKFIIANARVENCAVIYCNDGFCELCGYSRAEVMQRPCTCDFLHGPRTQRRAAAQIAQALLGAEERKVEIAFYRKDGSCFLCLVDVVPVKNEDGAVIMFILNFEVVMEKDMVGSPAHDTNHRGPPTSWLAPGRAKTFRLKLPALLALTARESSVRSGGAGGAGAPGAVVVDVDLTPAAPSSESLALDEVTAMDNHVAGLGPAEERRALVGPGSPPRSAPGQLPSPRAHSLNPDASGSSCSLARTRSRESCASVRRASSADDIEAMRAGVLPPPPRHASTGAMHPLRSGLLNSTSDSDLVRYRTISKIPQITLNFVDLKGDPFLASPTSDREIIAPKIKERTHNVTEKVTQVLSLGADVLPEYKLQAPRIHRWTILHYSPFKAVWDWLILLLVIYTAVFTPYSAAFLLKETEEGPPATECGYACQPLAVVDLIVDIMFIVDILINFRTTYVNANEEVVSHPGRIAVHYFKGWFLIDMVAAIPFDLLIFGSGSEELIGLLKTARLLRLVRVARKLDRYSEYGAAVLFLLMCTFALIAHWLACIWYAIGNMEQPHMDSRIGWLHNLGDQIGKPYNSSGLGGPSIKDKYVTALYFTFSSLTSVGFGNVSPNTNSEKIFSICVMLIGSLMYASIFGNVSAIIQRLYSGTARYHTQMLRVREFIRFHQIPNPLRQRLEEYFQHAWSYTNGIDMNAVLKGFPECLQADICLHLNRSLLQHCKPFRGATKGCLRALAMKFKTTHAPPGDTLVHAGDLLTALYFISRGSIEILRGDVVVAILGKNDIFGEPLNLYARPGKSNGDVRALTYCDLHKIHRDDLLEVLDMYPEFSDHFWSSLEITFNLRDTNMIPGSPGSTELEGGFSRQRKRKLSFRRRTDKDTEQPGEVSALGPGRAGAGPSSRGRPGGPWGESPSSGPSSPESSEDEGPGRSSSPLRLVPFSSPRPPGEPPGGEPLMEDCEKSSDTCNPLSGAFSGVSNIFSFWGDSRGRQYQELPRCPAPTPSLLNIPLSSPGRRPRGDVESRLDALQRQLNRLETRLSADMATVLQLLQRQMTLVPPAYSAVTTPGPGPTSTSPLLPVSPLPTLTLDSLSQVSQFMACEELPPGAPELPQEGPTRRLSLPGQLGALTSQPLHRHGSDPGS

Structure (SMILES) | IC50 [1] [nM] | IC50 [2] [nM] | logD [3] | Activity [4] [mg/dL]
CC(C)c1cc(C#N)cc2nc(-c3ccc(C(=O)NC[C@H]4CC[C@H](c5ccc(Cl)cc5)CC4)cc3)oc12 | > 30000 | 77 |  | 
CC(C)c1cc(C#N)cc2nc(-c3ccc(C(=O)NCC4CN(c5ccc(-c6ccccc6C#N)cn5)C(=O)O4)cc3)oc12 (racemic) | 1190 | 829 | 5.1 | 
CC(C)c1cc(C#N)cc2nc(-c3ccc(C(=O)NC[C@H]4CC[C@@H](c5ccc(C(C)(C)C)cc5)CC4)cc3)oc12 | > 30000 | 37 |  | 17
CC(C)c1cc(C#N)cc2nc(-c3ccc(C(=O)NC[C@@H]4CN(c5ccc(-c6ccccc6OC(F)(F)F)cn5)C(=O)O4)cc3)oc12 | > 30000 | 46 |  | 19
CC(C)c1cc(C#N)cc2nc(-c3ccc(C(=O)NC[C@H]4CN(c5ccc(-c6ccccc6OC(F)(F)F)cn5)C(=O)O4)cc3)oc12 | 3580 | 140 |  | 
CC(C)c1cc(C#N)cc2nc(-c3ccc(C(=O)NCC4CN(c5ccc(-c6ccccc6C(N)=O)cn5)C(=O)O4)cc3)oc12 (racemic) | > 30000 |  | 4.8 | 
CC(C)Oc1ccc(F)cc1-c1ccc(N2CCC(CNC(=O)c3ccc(-c4nc5cc(C#N)cc(C(C)C)c5o4)cc3)CC2)nc1 |  |  | 7.2 | 24
CC(C)c1cc(C#N)cc2nc(-c3ccc(C(=O)NC[C@]4(C)CN(c5ccc(-c6ccccc6OC(F)(F)F)cn5)C(=O)O4)cc3)oc12 | > 30000 | 22 |  | 33
C=C(C)c1ccc(N2CC(CNC(=O)c3ccc(-c4nc5cc(C#N)cc(C(C)C)c5o4)cc3)OC2=O)nc1 (racemic) | > 30000 | 2340 | 5.4 | 
CC(C)c1cc(C#N)cc2nc(-c3ccc(C(=O)NC[C@H]4CC[C@@H](c5cc(C(F)(F)F)cc(C(F)(F)F)c5)CC4)cc3)oc12 | > 30000 | 1040 |  | 
CC(C)c1cc(C#N)cc2nc(-c3ccc(C(=O)NCC4CN(c5ccc(Cl)cn5)C(=O)O4)cc3)oc12 (racemic) |  | 19200 | 5.8 | 
CC(C)c1cc(C#N)cc2nc(-c3ccc(C(=O)NC[C@H]4CC[C@@H](c5cccc(C(F)(F)F)c5)CC4)cc3)oc12 |  | 78 |  | 
CC(C)c1cc(C#N)cc2nc(-c3ccc(C(=O)NC[C@H]4CC[C@H](c5ccc(C(F)(F)F)cc5)CC4)cc3)oc12 | > 30000 | 40 |  | 
CC(C)Oc1ccc(F)cc1-c1ccc(N2C[C@@H](CNC(=O)c3ccc(-c4nc5cc(C#N)cc(C(C)C)c5o4)cc3)OC2=O)nc1 | > 30000 | 66 |  | 24
CC(C)Oc1ccc(F)cc1-c1ccc(N2CC(CNC(=O)c3ccc(-c4nc5cc(C#N)cc(C(C)C)c5o4)cc3)OC2=O)nc1 (racemic) | > 30000 | 124 | 6.6 | 
Cc1cccc([C@H]2CC[C@H](CNC(=O)c3ccc(-c4nc5cc(C#N)cc(C(C)C)c5o4)cc3)CC2)c1 |  | 133 |  | 
CC(C)c1cc(C#N)cc2nc(-c3ccc(C(=O)NCC4CN(c5ccc(-c6ccccc6OC(F)(F)F)cn5)C(=O)O4)cc3)oc12 (racemic) | > 30000 | 67 | 6.4 | 
CC(C)Oc1ccc(F)cc1-c1ccc(N2C[C@H](CNC(=O)c3ccc(-c4nc5cc(C#N)cc(C(C)C)c5o4)cc3)OC2=O)nc1 | > 30000 | 154 |  | 
Cc1cccc([C@H]2CC[C@@H](CNC(=O)c3ccc(-c4nc5cc(C#N)cc(C(C)C)c5o4)cc3)CC2)c1 |  | 145 |  | 
CC(C)c1cc(C#N)cc2nc(-c3ccc(C(=O)NC[C@H]4CC[C@@H](c5ccc(C(F)(F)F)cc5)CC4)cc3)oc12 | > 30000 | 134 |  | 
CC(C)c1cc(C#N)cc2nc(-c3ccc(C(=O)NC[C@@]4(C)CN(c5ccc(-c6ccccc6OC(F)(F)F)cn5)C(=O)O4)cc3)oc12 | > 30000 | 18 |  | 27
Cc1ccc(-c2ccc(N3CC(CNC(=O)c4ccc(-c5nc6cc(C#N)cc(C(C)C)c6o5)cc4)OC3=O)nc2)s1 (racemic) | 12700 | 955 | 6.2 | 
CC(C)c1cc(C#N)cc2nc(-c3ccc(C(=O)NC[C@H]4CC[C@H](c5ccc(C(C)(C)C)cc5)CC4)cc3)oc12 | > 30000 | 38 |  | 18
CC(C)c1cc(C#N)cc2nc(-c3ccc(C(=O)NC[C@H]4CC[C@H](c5cc(C(F)(F)F)cc(C(F)(F)F)c5)CC4)cc3)oc12 | > 30000 | 84 |  | 
CC(C)c1cc(C#N)cc2nc(-c3ccc(C(=O)NC[C@H]4CC[C@H](c5cccc(C(F)(F)F)c5)CC4)cc3)oc12 |  | 100 |  | 
Cc1ccc(OC(C)C)c(-c2ccc(N3CC(CNC(=O)c4ccc(-c5nc6cc(C#N)cc(C(C)C)c6o5)cc4)OC3=O)nc2)c1 (racemic) |  | 171 | 6.9 | 
